Series [1] addresses T1, α1A (rat submaxillary gland) (Rattus norvegicus, UniProt P43140).
T1 construct: α1A (rat submaxillary gland); from tissue; host or cells: rat submaxillary gland
T1 sequence (P43140 1-466): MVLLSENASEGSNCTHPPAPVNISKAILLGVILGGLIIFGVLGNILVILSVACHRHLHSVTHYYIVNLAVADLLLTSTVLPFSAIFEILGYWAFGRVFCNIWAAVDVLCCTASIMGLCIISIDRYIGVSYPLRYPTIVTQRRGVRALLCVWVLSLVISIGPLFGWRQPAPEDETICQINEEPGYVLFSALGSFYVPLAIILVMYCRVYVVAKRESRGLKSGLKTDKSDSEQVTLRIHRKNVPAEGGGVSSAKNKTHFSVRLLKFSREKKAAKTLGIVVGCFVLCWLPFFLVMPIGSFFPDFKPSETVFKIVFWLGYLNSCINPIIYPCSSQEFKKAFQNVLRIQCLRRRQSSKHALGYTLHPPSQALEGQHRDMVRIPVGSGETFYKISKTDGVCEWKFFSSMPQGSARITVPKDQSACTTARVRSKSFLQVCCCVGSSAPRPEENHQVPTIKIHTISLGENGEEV
Briefly: Radioligand binding with [3H]-prazosin, α1A. Conditions: rat submaxillary gland, [3H]-prazosin. In outline: (§1)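 Radioligand binding with [3H]-prazosin: α1A from rat submaxillary gland; α1b hamster receptor and α1d rat receptor, each expressed in mouse fibroblasts.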

The target in series [2] is T2, α1A (rabbit urethra) (Oryctolagus cuniculus, UniProt O02824).
T2 construct: tested for α1A functional activity using rabbit urethra; from tissue; host or cells: rabbit urethra
T2 sequence (O02824 1-466): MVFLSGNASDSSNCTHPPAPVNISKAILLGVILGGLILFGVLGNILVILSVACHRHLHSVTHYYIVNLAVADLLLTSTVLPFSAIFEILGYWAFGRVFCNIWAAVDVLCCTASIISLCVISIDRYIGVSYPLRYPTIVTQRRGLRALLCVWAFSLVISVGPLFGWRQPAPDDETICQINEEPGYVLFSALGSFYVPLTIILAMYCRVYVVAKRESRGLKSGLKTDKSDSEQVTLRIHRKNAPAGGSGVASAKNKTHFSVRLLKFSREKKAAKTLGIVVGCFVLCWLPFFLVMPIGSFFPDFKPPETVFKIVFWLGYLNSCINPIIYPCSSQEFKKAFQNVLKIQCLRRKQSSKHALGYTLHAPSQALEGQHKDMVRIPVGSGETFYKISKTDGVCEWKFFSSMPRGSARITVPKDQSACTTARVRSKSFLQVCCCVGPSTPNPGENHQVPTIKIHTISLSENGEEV
Briefly: Agonist contraction of smooth muscle tissue, rabbit urethra. In kind it is cell-based. As to conditions: rabbit urethra; read-out: Agonist Tissue Response (pD2) α1A (rab ureth) (converted). The procedure:
Most of the compounds were tested for α1A functional activity using rabbit urethra as follows. Female New Zealand white rabbits (2.0-3.5 Kg) were sedated with CO2 and decapitated. […] Subsequent experimental conditions were as described above for the other tissues. Agonist concentration response curves were cumulative except for the vas deferens assay in which the transient response made such measurements impractical.

The subject of series [3] is Anesthetized Dogs. Briefly: Intraurethral pressure (IUP) in anesthetized dogs. It counts as in vivo, dog. As to conditions: anesthetized female dogs, iv. From the text: (§2) In vivo Functional Assays-Assessment of Intrurethral Pressure (IUP) and Mean Arterial Pressure (MAP) in Anesthetized Dogs
(§3) Female dogs (Marshall Farms, North Rose, N.Y.) greater that 2 years of age and weighing between 12 and 15 kg were used in these studies. At least 2 weeks prior to any agonist dosing, dogs were instrumented for the chronic measurement of arterial blood pressure by implanting a telemetry transducer/transmitter (TA11PA-C40, Data Sciences International, St. Paul, Minn.) into a carotid artery.
(§4) On the test day, dogs fasted since the previous afternoon were pre-anesthetized with thiopental sodium 15 mg/kg i.v. (Pentothal™, Abbott) and intubated. Anesthesia was maintained by allowing the dog to spontaneously breathe a mixture of isoflurane (2.5 to 3 volume %) and oxygen delivered by a Narkomed Standard anesthesia system (North American Drager, Telford, Pa.). An Abbocath-T™ i.v. catheter (18-G, Abbott) was inserted into the cephalic vein for the administration of agonists. A telemetry receiver (RA1310, DataSciences) was placed under the head of each dog and was interfaced to a computerized data acquisition system (Modular Instruments Inc.(MI2), Malvern, Pa.) which allowed for the continuous calibrated recording of arterial blood pressure which was electronically filtered to determine its mean value (MAP).
(§5) Dogs with chronic telemetry implants anesthetized as described above were placed in dorsal recumbency and a balloon catheter was inserted into the urethral orifice and advanced approximately 15 cm until the tip was well inside the bladder. The balloon was then inflated with 1 ml of room air and the catheter slowly withdrawn until resistance (corresponding to the bladder neck) was evident. The balloon was then deflated and the catheter withdrawn an additional 2 cm. The balloon was then reinflated and its catheter port connected to a Gould Statham P23Dd pressure transducer interfaced to a computerized data acquisition system (Modular Instruments, Inc., Malvern, Pa.) for the measurement of intraurethral pressure. Increasing iv doses of test agonists were administered and the maximum effect of each dose on IUP was recorded. The effect of each dose was allowed to return to baseline before the next dose was given.
(§6) From the resulting dose response curve, an ED5 value, for the dose causing a maximum increase in IUP of 5 mm Hg, could be estimated. An ED20 value for the dose causing a maximum increase in MAP of 20 mm Hg could also be estimated. A selectivity ratio of MAP ED20 vs. IUP ED5 was calculated.

The test system of series [4] is Anesthetized Dogs. Briefly: Mean arterial pressure (MAP) in anesthetized dogs. It counts as in vivo, dog. As to conditions: iv dose causing a maximum increase in MAP of 20 mm Hg, anesthetized female dogs.
From the text: as §2, §3, §4, §5, §6

In series [5] the test system is Anesthetized Dogs. Description: Intraurethral pressure (IUP) in anesthetized dogs. In kind it is in vivo, dog. As to conditions: Canis lupus familiaris; iv dose causing a maximum increase in IUP of 5 mm Hg, anesthetized female dogs; read-out: Mean IUP ED5.
Series [6] addresses T3, α1b (hamster receptor expressed in mouse fibroblasts) (Mesocricetus auratus, UniProt P18841).
T3 construct: expressed in transfected cells; host or cells: mouse fibroblasts
T3 sequence (P18841 1-515): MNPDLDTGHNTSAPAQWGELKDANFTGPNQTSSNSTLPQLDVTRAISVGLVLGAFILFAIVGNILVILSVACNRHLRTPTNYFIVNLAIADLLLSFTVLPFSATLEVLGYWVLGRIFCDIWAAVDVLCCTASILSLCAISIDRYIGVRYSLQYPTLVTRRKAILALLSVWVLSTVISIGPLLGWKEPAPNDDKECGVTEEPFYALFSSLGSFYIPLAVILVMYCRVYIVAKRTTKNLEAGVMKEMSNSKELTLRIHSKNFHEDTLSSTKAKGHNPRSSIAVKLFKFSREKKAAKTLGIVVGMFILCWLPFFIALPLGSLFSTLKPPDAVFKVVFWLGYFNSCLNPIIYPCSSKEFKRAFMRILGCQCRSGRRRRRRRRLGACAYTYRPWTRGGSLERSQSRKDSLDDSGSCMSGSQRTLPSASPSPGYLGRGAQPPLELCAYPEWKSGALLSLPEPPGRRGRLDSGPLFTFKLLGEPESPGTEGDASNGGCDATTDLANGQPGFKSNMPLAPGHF
Briefly: Radioligand binding with [3H]-prazosin, α1b. As to conditions: hamster receptor expressed in mouse fibroblasts, [3H]-prazosin; read-out: Radioligand Binding Ki α1b (Hamster). The procedure:
For purposes of discussing α1 adrenoceptor subtypes, the IUPHAR convention of using lower case letters to define molecular clones and upper case letters to indicate pharmacologically defined adrenoceptors has been followed. Compounds of formula I were evaluated in radioligand binding assays specific for α1A (rat submaxillary gland), α1b (hamster receptor expressed in mouse fibroblasts) and α1d (rat receptor expressed in mouse fibroblasts) using [^3H]-prazosin as the radioligand as described in Knepper, et al. J. Pharm.

Series [7] has as its target T4, α1d (rat receptor expressed in mouse fibroblasts) (Rattus norvegicus, UniProt P23944).
T4 construct: expressed in transfected cells; host or cells: mouse fibroblasts
T4 sequence (P23944 1-561): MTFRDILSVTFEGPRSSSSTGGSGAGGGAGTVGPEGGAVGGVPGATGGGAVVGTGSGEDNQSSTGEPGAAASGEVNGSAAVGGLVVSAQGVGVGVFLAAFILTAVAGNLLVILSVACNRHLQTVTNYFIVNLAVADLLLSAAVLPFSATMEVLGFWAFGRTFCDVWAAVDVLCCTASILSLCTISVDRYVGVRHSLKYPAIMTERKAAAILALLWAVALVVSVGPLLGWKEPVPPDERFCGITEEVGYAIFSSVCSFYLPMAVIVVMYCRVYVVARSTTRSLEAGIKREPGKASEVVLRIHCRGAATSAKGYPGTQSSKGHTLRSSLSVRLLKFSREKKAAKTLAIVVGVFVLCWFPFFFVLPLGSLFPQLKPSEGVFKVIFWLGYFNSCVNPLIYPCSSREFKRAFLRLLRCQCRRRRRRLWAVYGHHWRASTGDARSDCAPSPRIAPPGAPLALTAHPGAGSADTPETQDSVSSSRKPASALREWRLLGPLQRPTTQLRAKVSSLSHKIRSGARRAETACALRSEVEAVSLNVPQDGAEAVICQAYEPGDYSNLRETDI
Briefly: Radioligand binding with [3H]-prazosin, α1d. Conditions: rat receptor expressed in mouse fibroblasts, [3H]-prazosin; read-out: Radioligand Binding Ki α1d (Rat). The method, boiled down: as §1

The target in series [8] is T5, α1B (rat spleen) (Rattus norvegicus, UniProt P15823).
T5 construct: α1B (rat spleen) and α1D (rat aorta) receptors; from tissue; host or cells: rat spleen
T5 sequence (P15823 1-515): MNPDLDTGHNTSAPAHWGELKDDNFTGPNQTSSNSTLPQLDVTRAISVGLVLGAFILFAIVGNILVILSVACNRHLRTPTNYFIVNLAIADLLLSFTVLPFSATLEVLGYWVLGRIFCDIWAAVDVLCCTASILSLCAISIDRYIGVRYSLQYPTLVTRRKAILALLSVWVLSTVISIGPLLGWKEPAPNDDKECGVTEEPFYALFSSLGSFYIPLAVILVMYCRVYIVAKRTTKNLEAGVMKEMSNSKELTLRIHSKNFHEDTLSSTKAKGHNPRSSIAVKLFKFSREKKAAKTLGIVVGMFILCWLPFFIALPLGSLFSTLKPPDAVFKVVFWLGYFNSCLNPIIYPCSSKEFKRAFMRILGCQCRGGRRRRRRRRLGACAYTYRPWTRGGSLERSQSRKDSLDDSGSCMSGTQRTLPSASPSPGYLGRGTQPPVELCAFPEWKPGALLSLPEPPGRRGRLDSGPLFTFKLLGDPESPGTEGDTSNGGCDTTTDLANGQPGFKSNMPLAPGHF
Description: Agonist contraction of smooth muscle tissue, rat spleen. It counts as cell-based. Conditions: rat spleen; read-out: Agonist Tissue Response (pD2) α1B (rat spleen) (converted).

In series [9] the target is T6, α1D (rat aorta) (Rattus norvegicus, UniProt P23944).
T6 construct: α1B (rat spleen) and α1D (rat aorta) receptors; from tissue; host or cells: rat aorta strips, endothelium removed
T6 sequence (P23944 1-561): T4 sequence (P23944 1-561)
Briefly: Agonist contraction of smooth muscle tissue, rat aorta. Conditions: rat aorta, endothelium removed; read-out: Agonist Tissue Response (pD2) α1D (rat aorta) (converted). It counts as cell-based.

pKi: −log10 of the molar value. Where a name gives a salt, the structure may show the parent alone.

Results on seven molecules are retold here after patent US6503935B1, “Imidazoles and related compounds as α1A agonists” (Abbott Laboratories, priority 1998, dated 2003).

As for `CN(c1cccc2c1CCCC2c1c[nH]cn1)S(C)(=O)=O` (centres unmarked) (as salt: maleate) [Example 15, N-[5,6,7,8-tetrahydro-5-(1H-imidazol-4-yl)-1-naphthalenyl]-N-methylmethanesulfonmamide, maleate], the melting point lay in the range of 146 to 147 °C.
The same measure, in the same setting: for `O=C(Nc1cccc2c1CCCC2c1c[nH]cn1)C(F)(F)F` (centres unmarked) (as salt: maleate) [Example 17, 2,2,2-trifluoro-N-[5-(1H-imidazol-4-yl)-5,6,7,8-tetahydro-1-naphthalenyl]acetamide, maleate] the value was 181 to 182 °C; for `COc1ccc(NS(C)(=O)=O)c2c1C(c1c[nH]cn1)CCC2` (centres unmarked) (as salt: maleate) [Example 26, N-[5,6,7,8-tetrahydro-(1H-imidazol-4-yl)-4-methoxyy-1-naphthalenyl]methanesulfonamide, maleate], 181 to 184 °C; for `C=C(c1cccc(NS(=O)(=O)CC)c1)c1c[nH]cn1` (as salt: maleate) [Example 45, N-{3-[1-(1H-imidazol-4-yl)vinyl]phenyly}ethanesulfonamide, maleate], 151 to 155 °C.
Regarding `O=S(=O)(CC(F)(F)F)Nc1cccc2c1CCCC2c1c[nH]cn1` (single isomer, unassigned; (+)) [Example 36, (+)-N-[5,6,7,8-tetrahydro-5-(1H-imidazol-4-yl)-1-naphthalenyl]-2,2,2-trifluoroethanesulfonamide], the pKi in series [1] is 6.91. Moreover, the EC50 in [2] was 1.86 µM. Also, the “Mean Selectivity Ratio MAP ED20/IUP ED5” value in series [3] is reported as 3.6. Further, the “Mean MAP ED20” value in series [4] is recorded as 508 nmol/kg. Further, in series [5], the ED (5 mmHg IUP increase) turned out to be 0.156 µmol/kg.
As to `Cl.Cn1cnc(C2CCCc3c(NS(C)(=O)=O)cccc32)c1` (centres unmarked) [Example 14, N-[5,6,7,8-tetrahydro-5-(1-methyl-1H-imidazol-4-yl)-1-naphthalenyl]methanesulfonamide, hydrochloride], the pKi in series [1] was 6.56; in [6], 5.69; in series [7] it was 5.98. Further, the EC50 in series [8] and in [9] was above 1000 µM throughout. In addition, the “Mean MAP ED20” value in [4] is reported as above 1000 nmol/kg. In addition, the ED (5 mmHg IUP increase) in series [5] was above 1 µmol/kg.
For the molecule `CCS(=O)(=O)Nc1cccc(Cc2c[nH]cn2)c1.O=C(O)/C=C\C(=O)O` [Example 30, N-[3-(1H-imidazol-4-ylmethyl)phenyl]ethanesulfonamide, maleate], the pKi in series [1] was 6.87; in series [6], 6.05; in series [7], 6.55. For the same molecule, the values for the EC50 in series [8] and in series [9] were 0.692 µM and above 1000 µM, respectively. Also, the “Mean MAP ED20” value in [4] is listed as 80.5 nmol/kg. Also, the ED (5 mmHg IUP increase) in series [5] was determined as 0.0121 µmol/kg.
